Literature values, collected in patent US20240024337A1, “INTERACTION OF SARS-COV-2 PROTEINS WITH MOLECULAR AND […] […] HOST CELLS AND FORMULATIONS TO TREAT COVID-19” (AKSEERA PHARMA CORP., priority 2020, published 2024).

Test system: HT22 hippocampal neurons
Conditions: 5 μM; oxygen-glucose deprivation

C=C(C)[C@@H]1CCC(C)=C[C@H]1c1c(O)cc(CCCCC)cc1O [Cannabidiol, 2-[(1R,6R)-3-Methyl-6-(1-methylethenyl)-2-cyclohexen-1-yl]-5-pentyl-1,3-benzenediol]
apoptosis and oxidative stress: significantly attenuated
